What all share (assay type): cell-based
The subject of assay [1] is Candida albicans (RCMB 5002). In words: Antimicrobial screening, disc diffusion. As to conditions: compounds isolated from Cunninghamella elegans. Here is the method:
(§1) The alcoholic extracts obtained were used for testing their antimicrobial activity. Each extract (0.5 g) was dissolved in 10 ml water. Same concentrations for the successive extracts (using diethyl ether, chloroform, ethyl acetate and n-butanol) were also prepared.
(§2) The representatives of Gram negative bacteria, namely Salmonella typhimuium (RCMB 0104), Escherichia coli (RCMB 0103), Pseudomonas aeruginosa (RCMB 0102) and Gram positive bacteria, namely Bacillus subtilis (RCMB 0107), Staphylococcus aureus (RCMB 0106), Streptococcus pyogenes (RCMB 0109), unicellular fungi, namely Candida albicans (RCMB 5002) and filamentous fungi, namely Aspergillus fumigatus (RCMB 2003) and Penicllium expansum (RCMB 1006) were used as test organisms (RCMB: The Regional Center for Mycology and Biotechnology, Al-azhar University Nasser City, Cairo, Egypt).
(§3) For antimicrobial screening the well known disc diffusion and agar well diffusion methods were used, together with the determination of minimum inhibitory concentration (MIC), see Duguid et al., Microbial Infections, The English Language Book Society, Churchill Livingston, Edingburgh, London, 1978; vol. 1, page 110.
(§4) Disc diffusion method: The agar disc diffusion method is employed for the determination of antimicrobial activities of the extracts of the investigated fungal species. Sterilized paper discs (Whatman No. 1) ([…]) were separately soaked in the extracts and transferred onto the surface of growth media seeded with the test organism. After incubation period, following suitable conditions for the test organism, the diameter of the inhibition zone around the discs was measured in millimeters. The obtained result was the mean of three experiments.
(§5) Each fungal species was grown on malt extract media at 28±2° C. for 14 days. The metabolites of the fungal species were screened for antimicrobial activity. The inhibition zones around each disc were measured, in millimeter, and recorded (Tables 1).
(In general: A growth-free zone around the sample is the usual read-out of agar diffusion tests.)

In assay [2] the test system is Bacillus subtilis (RCMB 0107). In words: Antimicrobial screening, disc diffusion. The note with it: compounds isolated from Cunninghamella elegans. Here is the method: as §1, §2, §3, §4, §5
The test system of assay [3] is Escherichia coli (RCMB 0103). In words: Antimicrobial screening, disc diffusion. As to conditions: compounds isolated from Cunninghamella elegans. Here is the method: as §1, §2, §3, §4, §5
The subject of assay [4] is Pseudomonas aeruginosa (RCMB 0102). The experiment in a line: Antimicrobial screening, disc diffusion. As to conditions: Pseudomonas aeurginosa; compounds isolated from Cunninghamella elegans. Here is the method:
as §1, §2, §3, §4, §5

Assay [5] deals with Staphylococcus aureus (RCMB 0106). In words: Antimicrobial screening, disc diffusion. As to conditions: compounds isolated from Cunninghamella elegans. Here is the method:
as §1, §2, §3, §4, §5

Assay [6] deals with Streptococcus pyogenes (RCMB 0109). In words: Antimicrobial screening, disc diffusion. The note with it: compounds isolated from Cunninghamella elegans. Here is the method: as §1, §2, §3, §4, §5
The test system of assay [7] is Aspergillus fumigatus (RCMB 2003). The experiment in a line: Antimicrobial screening, disc diffusion. The note with it: compounds isolated from Cunninghamella elegans. Here is the method:
as §1, §2, §3, §4, §5

Assay [8] relates to Penicllium expansum (RCMB 1006). In words: Antimicrobial screening, disc diffusion. As to conditions: Penicillium expansum; compounds isolated from Cunninghamella elegans. Here is the method:
as §1, §2, §3, §4, §5

The next assay relates to Staphylococcus aureus. In words: Minimum inhibitory concentration, agar well diffusion. As to conditions: for MIC: read-out: Minimum inhibitory concentration.
Source text: as §3
Agar well diffusion method: On the other hand, the agar well diffusion method was employed for determination of the minimum inhibitory concentration (MIC). The test organisms were separately seeded in the agar medium. The wells (10 mm in diameter) were cut from the agar and […] (different concentrations) was transferred into them. After incubation period, following suitable conditions for the test organism, the diameter of the inhibition zone around the discs was measured in millimeters. The obtained result was the mean of three experiments.
The minimum inhibitory concentration (MIC) of Cunninghamella blakesleeana, C. elegans, C. homothallica and successive extracts and isolated compounds of Cunninghamella elegans against Staphylococcus aureus was determined.
Minimum inhibitory concentration (MIC): The lowest concentration of an antimicrobial agent that will inhibit a visible growth of a microorganism after overnight incubation.

Assay [9] deals with Salmonella typhimuium (RCMB 0104). In words: Antimicrobial screening, disc diffusion. As to conditions: Salmonella typhimuim; compounds isolated from Cunninghamella elegans. Here is the method:
as §1, §2, §3
Disc diffusion method: The agar disc diffusion method is employed for the determination of antimicrobial activities of the extracts of the investigated fungal species. Sterilized paper discs (Whatman No. 1) ([…]) were separately soaked in the extracts and transferred onto the surface of growth media seeded with the test organism. After incubation period, following suitable conditions for the test organism, the diameter of the inhibition zone around the discs was measured in millimeters.
Each fungal species was grown on malt extract media at 28±2° C. for 14 days. The metabolites of the fungal species were screened for antimicrobial activity.

In brackets after ≈: the same amount, converted by molar mass. Where two headings read alike, the source gives them in different places.

With `O=c1ccn([C@@H]2O[C@H](CO)[C@@H](O)[C@H]2O)c(=O)[nH]1` [Compound 5, pyrimidine-2,4-dion, 1-ribose], the “Diameter of inhibition zone” value was 00.0 mm in [1]; 00.0 mm in assay [2]; 00.0 mm in assay [3]; 00.0 mm in assay [4]; 11.0 ± 0.1 mm in [5]; 00.0 mm in assay [6]. In addition, the “Diameter of inhibition zone” value in assay [7], in [8] and in assay [9] was 00.0 mm throughout. The molecule also displayed a Minimum inhibitory concentration in the assay on Staphylococcus aureus (against Staphylococcus aureus) of 150 µg/mL (≈ 614 µM).
Take `O=C(O)c1cc(O)c(O)c(O)c1` [Compound 7, 3,4,5-trihydroxy-benzoic acid]: the “Diameter of inhibition zone” value in [1] is 00.0 mm; in [2], 00.0 mm; in assay [3], 00.0 mm; in [4], 00.0 mm; in assay [5], 05.0 ± 0.5 mm; in [6], 00.0 mm. Moreover, the “Diameter of inhibition zone” value in assay [7] and in [8] was 00.0 mm in each case. Moreover, in the assay with Staphylococcus aureus (against Staphylococcus aureus), the MIC was determined as 130 µg/mL (≈ 764 µM).
Take `C=C(CC(=O)O)C(=O)OC` [Compound 8, 3-(methoxycarbonyl)-but-3-enoic acid]: the “Diameter of inhibition zone” value in [1] is 00.0 mm; in assay [2] it was 00.0 mm; in [3], 00.0 mm; in assay [4], 00.0 mm; in assay [5], 07.0 ± 0.5 mm; in assay [6], 00.0 mm. In addition, the “Diameter of inhibition zone” value in assay [7], in assay [8] and in assay [9] was 00.0 mm throughout. Further, the MIC in the assay with Staphylococcus aureus (against Staphylococcus aureus) stood at 210 µg/mL (≈ 1460 µM).
Regarding `CN[C@H](CC(C)C)C(=O)N[C@H]1C(=O)N[C@@H](CC(N)=O)C(=O)N[C@H]2C(=O)N[C@H]3C(=O)N[C@H](C(=O)N[C@H](C(=O)O)c4cc(O)cc(O)c4-c4cc3ccc4O)[C@H](O)c3ccc(c(Cl)c3)Oc3cc2cc(c3O[C@@H]2O[C@H](CO)[C@@H](O)[C@H](O)[C@H]2O[C@H]2C[C@](C)(N)[C@H](O)[C@H](C)O2)Oc2ccc(cc2Cl)[C@H]1O` [Vancomycin, reference compound], the MIC in the assay on Staphylococcus aureus (Staphylococcus aureus) turned out to be 0.75 µg/mL (≈ 0.518 µM).
Take Gentamicin [reference compound]: in the assay with Staphylococcus aureus (against Staphylococcus aureus), the Minimum inhibitory concentration worked out at 0.35 µg/mL.

(Values after US20130224239A1, “ALCOHOLIC EXTRACT OF FUNGI OF GENUS […] AND USE THEREOF” (KING SAUD UNIVERSITY, priority 2011, published 2013).)
